Reference: the SangsterLogP compilation

Assay: method code SF-AS, from DOI: 10.1016/s0021-9673(00)94589-8, PMID: 3356765

| logP | SMILES |
| --- | --- |
| 1.63 | COC(=O)Nc1cccc(C(C)=O)c1 |
| 2.09 | COC(=O)Nc1ccccc1C(F)(F)F |
| 2.72 | CCc1cccc(NC(=O)OC)c1 |
| 2.4 | CCOc1ccccc1NC(=O)OC |
| 1.77 | COC(=O)Nc1cccc(C#N)c1 |
| 1.84 | COC(=O)Nc1ccccc1OC |
| 2.82 | CCOc1ccc(NC(=O)OC(C)C)cc1OCC |
| 2.74 | COC(=O)Nc1cccc(C(F)(F)F)c1 |
| 2.11 | CCOc1ccc(NC(=O)OC)cc1 |
| 2.25 | COC(=O)Nc1ccccc1Br |
| 3.68 | CCCCc1ccc(NC(=O)OC)cc1 |
| 2.13 | CCOc1ccc(NC(=O)OCCC#N)cc1OCC |
| 1.69 | COC(=O)Nc1ccccc1C |
| 1.92 | COC(=O)Nc1cccc(OC)c1 |
| 2.07 | COC(=O)Nc1ccccc1[N+](=O)[O-] |
| 2.22 | COC(=O)Nc1cccc(C)c1 |
| 1.95 | COC(=O)Nc1cccc([N+](=O)[O-])c1 |
| 1.66 | COC(=O)Nc1ccccc1F |
| 2.72 | CCc1ccc(NC(=O)OC)cc1 |
| 2.27 | COC(=O)Nc1ccc(C)cc1 |
| 2.68 | C#CCOC(=O)Nc1ccc(OCC)c(OCC)c1 |

Assay: not given

| logP | SMILES |
| --- | --- |
| 2.58 | CCOC(=O)Nc1ccc(OCC)c(OCC)c1 |
| 2.02 | COC(=O)Nc1ccc(F)cc1 |
| 3.41 | CCOc1ccc(NC(=O)OC2CCCC2)cc1OCC |
| 2.36 | COC(=O)Nc1ccccc1I |
| 2.74 | C=CCOC(=O)Nc1ccc(OCC)c(OCC)c1 |
| 2.19 | COC(=O)Nc1ccccc1Cl |
| 3.35 | CCCCOC(=O)Nc1ccc(OCC)c(OCC)c1 |
| 1.77 | COC(=O)Nc1ccc(OC)cc1 |
| 2.88 | COC(=O)Nc1cccc(I)c1 |
| 3.32 | CCOc1ccc(NC(=O)OCc2ccccc2)cc1OCC |
| 2.17 | COC(=O)Nc1cccc(F)c1 |
| 3.39 | CCOc1ccc(NC(=O)OC(CBr)CBr)cc1OCC |
| 2.52 | COC(=O)Nc1ccc(Cl)cc1 |
| 1.67 | COC(=O)Nc1ccc(C#N)cc1 |
| 2.28 | CCOc1cccc(NC(=O)OC)c1 |
| 2.97 | CCCOC(=O)Nc1ccc(OCC)c(OCC)c1 |
| 2.59 | COC(=O)Nc1cccc(Cl)c1 |
| 2.2 | CCOc1ccc(NC(=O)OC)cc1OCC |
| 2.71 | COC(=O)Nc1cccc(Br)c1 |
| 1.98 | COC(=O)Nc1ccc([N+](=O)[O-])cc1 |
| 3.33 | CCOc1ccc(NC(=O)OCC(C)C)cc1OCC |
| 2.22 | CCOc1ccc(NC(=O)OCCOC)cc1OCC |
